Experimental data from patent publication US9517265B2, “Methods for the prevention and/or treatment of memory impairment” (The Governing Council of the University of Toronto, priority 2010, dated 2016).
Entries after “also recorded” stand apart in the source; their conditions may differ. Like-named read-outs stand apart in the source and are kept apart here.

Experiments:
[1] = biological target: α5GABAARs (Mus musculus, UniProt P22723+Q8BHJ7); settings: WT mice, cited from earlier work
[2] = biological target: T1, α5GABAA receptors (Mus musculus, UniProt P22723+Q8BHJ7); experiment: Fear conditioning (contextual and cued) after isoflurane anesthesia; assay type: in vivo, C57BL6/J mice; design: from tissue; host or cells: brain of living mice (behavioural tests); settings: for effect on memory deficit after isoflurane (in words): L-655,708 given before isoflurane; for freezing score to context, short-term memory: tested 30 min after training; for freezing score to auditory tone, short-term memory: tested 90 min after conditioning; for freezing score to auditory tone, long-term memory / freezing score to context, long-term memory: tested 2 days after conditioning
Method: To prevent hypothermia during anesthesia, the floor of the chamber was warmed with a heating blanket. […] The mouse was then either returned to its home cage and allowed to recover for 24 h (24-h groups) or taken to a holding cage in an adjacent room (1-h groups). For continuity and to ensure that the experimenter who performed the fear-conditioning studies was blinded to the treatment group, mice that were allowed to recover for 24 h were placed back in a heated for 45 min before the behavioral experiments. FIGS. 1A and 1B summarize the time course of the experimental procedures. In FIG. 1A, each stage of the experimental paradigm is represented by chronological boxes and cartoons. Relative time is indicated below the boxes (t=0, start of fear conditioning training). The duration of each stage is inset at the bottom left. […] Four groups of isoflurane-treated subjects were used (1 h recovery+L-655,708; 1 h recovery+vehicle; 24 h recovery+L-655,708; 24 h recovery+vehicle). Two oxygen-control group was used (1 h recovery+L-655,708; 1 h recovery+vehicle). 10 min prior to fear conditioning, subjects were examined in the elevated plus maze (EPM). Subjects were tested for short-term memory (STM) and long-term memory (LTM) of the context and tone.
Testing of memory function was performed using two fear-conditioning paradigms. These tests study the ability of mice to learn and remember an association between an aversive stimulus (foot shock) and non-aversive or neutral stimuli (environmental context or an auditory cue). […] Each mouse was introduced to the fear conditioning chamber (50 cm wide×15 cm deep×15 cm high, Process Control Fear Conditioning Monitor GmbH 303410, Technical & Scientific Equipment Systems Inc., Chesterfield, Mo.). The chamber was illuminated with an interior overhead light (50 lx) and was equipped with a stainless steel grid floor connected to a constant-current shock generator. Each mouse was allowed to explore the chamber for 3 min before presentation of a pulsating tone (80 dB, 3600 Hz) which persisted for 30 s. The tone was followed immediately by a mild foot shock (0.7 mA for 0.5 s). The mouse was allowed to explore the chamber for a further 30 s after the shock to study post-shock freezing.
Freezing was scored using Observer software (Noldus Information Technology, Wagoningen, The Netherlands), by an experimenter who was blinded to the treatment groups. Before each new training session, the chamber was cleaned with 70% ethanol to mask and eliminate odors from the previous mouse.
Short-term memory for contextual learning was probed 30 min after training by re-exposed the mice to the same fear conditioning chamber for […]. Long-term memory for contextual learning was studied 2 days (48 h) after conditioning by re-exposing the mice to the conditioning chamber. Short-term memory for cued learning was determined 90 min after training by first allowing the mice to explore a modified chamber scented with 5% acetic acid and containing a plastic floor and cardboard walls and then after 3 min, re-presenting the tone (2-Hz pulsating tone, 80 dB, 3600 Hz) for 3 min. Non-specific freezing was measured during the exploration of the novel chamber prior to presenting the tone. Freezing scores to study recall were measured during presentation of the tone. Long-term memory for cued learning was determined by introducing the mice into the modified chamber and presenting the tone 2 days (48 h) after conditioning.

[3] = Elevated plus maze; assay type: in vivo, mice
Source text: Anxiety levels were studied using an elevated plus maze consisting of an acrylic glass apparatus in the shape of a cross (45 cm long×7 cm wide, with a central region of 7 cm×7 cm). Two opposing arms were enclosed with opaque white plastic walls (28 cm high, closed arms), whereas the other two opposing arms were left open (open arms). […] An observer blinded to treatment group recorded the position of each mouse on the maze using Observer software. The time spent in the center and in the open and closed arms were measured over 5 min. In addition, motor activity was quantified to study locomotion.

[4] = Tail-clamp withdrawal assay (MAC of isoflurane) and recovery of righting reflex; assay type: in vivo, mice; settings: for time to self-right after the immobilizing dose of isoflurane: L-655,708 or vehicle pretreatment, n=9; for immobilizing dose (MAC value) of isoflurane: tail-clamp, mice pretreated with L-655,708 0.7 mg/kg s.c. (row L-655,708) or vehicle (row isoflurane), n=17
Method: The MAC value was calculated as the mean value of these two concentrations.

[5] = biological target: T1, α5GABAA receptors; settings: for memory performance of Gabra5−/− mice (in words) / effect of the anesthetic on recognition memory, wild-type mice (in words): 24 h after anesthesia
[6] = Analysis of blood gases during isoflurane anesthesia; assay type: in vivo, mice; settings: for pH: n = 6
Source text: A needle was carefully inserted into the heart and blood was extracted into a heparinized syringe. The collected blood was immediately placed on ice and transported to a blood gas analyzer (ABL 700 series, Radiometer, Copenhagen, Denmark).

[7] = cited from earlier work
[8] = trained 1 h after isoflurane (1 MAC, 1 h), L-655,708 0.7 mg/kg s.c. or vehicle 10 min before isoflurane
[9] = trained 24 h after isoflurane, L-655,708 0.7 mg/kg s.c. or vehicle before isoflurane
[10] = 1 h Iso, vehicle (row isoflurane) or L-655,708
[11] = 24 h Iso, vehicle (row isoflurane) or L-655,708
[12] = high-dose experiment: isoflurane + vehicle injection (row isoflurane) or + L-655,708 0.7 mg/kg 30 min before training

T1 sequence (Q8BHJ7 32-463 limits assumed): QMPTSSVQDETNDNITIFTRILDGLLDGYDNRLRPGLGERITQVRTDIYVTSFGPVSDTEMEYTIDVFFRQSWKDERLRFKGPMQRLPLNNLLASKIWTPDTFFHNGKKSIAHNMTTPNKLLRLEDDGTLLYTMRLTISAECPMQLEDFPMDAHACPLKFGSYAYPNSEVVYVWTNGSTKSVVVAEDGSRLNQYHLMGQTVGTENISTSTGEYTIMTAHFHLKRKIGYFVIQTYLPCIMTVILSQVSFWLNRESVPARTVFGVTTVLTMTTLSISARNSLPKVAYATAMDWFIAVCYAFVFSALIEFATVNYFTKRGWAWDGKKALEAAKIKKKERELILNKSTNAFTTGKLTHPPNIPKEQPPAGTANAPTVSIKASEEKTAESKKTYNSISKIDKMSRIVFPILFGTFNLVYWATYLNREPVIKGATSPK
T1 sequence (P63080 26-473 partner): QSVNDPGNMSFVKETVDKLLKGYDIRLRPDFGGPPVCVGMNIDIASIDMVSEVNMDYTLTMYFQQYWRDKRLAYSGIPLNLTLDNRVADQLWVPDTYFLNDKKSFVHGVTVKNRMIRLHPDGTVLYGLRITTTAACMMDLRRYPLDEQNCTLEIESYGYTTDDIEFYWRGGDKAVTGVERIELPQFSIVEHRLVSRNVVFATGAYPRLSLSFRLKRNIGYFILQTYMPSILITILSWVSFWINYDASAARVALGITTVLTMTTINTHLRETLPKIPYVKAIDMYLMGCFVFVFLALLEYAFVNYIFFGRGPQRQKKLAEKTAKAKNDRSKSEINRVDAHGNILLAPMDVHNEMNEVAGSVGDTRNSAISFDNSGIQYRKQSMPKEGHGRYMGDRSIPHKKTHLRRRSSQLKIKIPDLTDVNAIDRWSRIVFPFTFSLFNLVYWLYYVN
T1 sequence (P22723 39-474): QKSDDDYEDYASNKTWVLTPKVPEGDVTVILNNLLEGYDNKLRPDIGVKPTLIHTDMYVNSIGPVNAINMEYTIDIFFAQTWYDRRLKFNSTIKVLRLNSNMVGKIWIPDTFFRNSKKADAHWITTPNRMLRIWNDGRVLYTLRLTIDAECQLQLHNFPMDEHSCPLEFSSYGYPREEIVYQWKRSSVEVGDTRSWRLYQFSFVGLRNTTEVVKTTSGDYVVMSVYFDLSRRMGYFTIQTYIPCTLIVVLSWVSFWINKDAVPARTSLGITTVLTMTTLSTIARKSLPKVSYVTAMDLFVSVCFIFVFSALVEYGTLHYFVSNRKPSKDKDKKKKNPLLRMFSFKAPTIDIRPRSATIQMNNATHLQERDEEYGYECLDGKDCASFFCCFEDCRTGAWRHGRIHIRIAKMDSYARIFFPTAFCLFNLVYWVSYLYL
α5GABAARs, sequence (Q8BHJ7 32-463 limits assumed): as the sequence (Q8BHJ7 32-463 limits assumed) above
α5GABAARs, sequence (P63080 26-473 partner): as the sequence (P63080 26-473 partner) above
α5GABAARs, sequence (P22723 39-474): as the sequence (P22723 39-474) above

CCOC(=O)c1ncn2c1[C@@H]1CCCN1C(=O)c1cc(OC)ccc1-2 [L-655,708]
trace fear memory, freezing scores (in words) ([1]; L-655,708 1 mg/kg i.p. 30 minutes prior to training): demonstrated increased freezing scores
contextual fear memory, freezing score (in words) ([1]; etomidate or etomidate plus L-655,708 30 min prior to training): prevented the etomidate-induced memory deficit
effect on memory deficit after isoflurane (in words) [2]: completely prevented memory deficits; also recorded: completely reversed the short-term memory deficit for contextual learning; also recorded: prevented the short-term memory deficit to the tone in mice trained 1 h after isoflurane; also recorded: had no effect on auditory recall in mice conditioned 24 h after exposure to isoflurane; also recorded: completely reversed by pretreatment with L-655,708; also recorded: did not reverse the long-term deficit in cued fear conditioning; also recorded: The impairment was prevented by pre-emptive treatment with L-655,708
effect on memory deficit after isoflurane (in words) ([2]; listed as L-655-708): had no effect on freezing in the oxygen-treated mice
freezing score to context, short-term memory ([2]; oxygen-treated mice): 80.1±6.4%
freezing score to context, short-term memory [2, 8]: 75.5±8.6%
freezing score to context, short-term memory [2, 9]: 81.9±5.6%
freezing score to auditory tone, short-term memory ([2]; trained 1 h after isoflurane): 49.1+8.8%
freezing score to auditory tone, long-term memory ([2]; trained 1 h after isoflurane): 41.7±7.3%
freezing score to context, long-term memory ([2]; trained 1 h after isoflurane): 72.3±4.9%
freezing score to context, long-term memory ([2]; trained 24 h after isoflurane): 75.2±8.3%
total number of visits to the middle area [3, 10]: 17.3±7.0
total number of visits to the middle area ([3]; 1 h O2): 19.5±8.5
total number of visits to the middle area [3, 11]: 13.6±7.1
time to self-right after the immobilizing dose of isoflurane [4]: 151 ± 27 s
effect on MAC of isoflurane (in words) ([4]; mouse, in vivo): did not change the MAC value for isoflurane
immobilizing dose (MAC value) of isoflurane [4]: 1.33±0.02
memory performance of Gabra5−/− mice (in words) [5]: did not affect the memory performance of Gabra5−/− mice
discrimination ratio, short-term memory ([5]; Gabra5−/− mice, L-655,708 0.70 mg/kg i.p. 10 min before isoflurane): 0.62±0.05
discrimination ratio, short-term memory ([5]; Gabra5−/− mice, L-655,708 0.70 mg/kg i.p. 10 min before vehicle gas): 0.64±0.05
effect on isoflurane-induced recognition memory deficit (in words) ([5]; L-655,708 0.35 mg/kg 24 h after isoflurane, 30 min before training): restored normal memory performance in groups that were exposed to isoflurane; also recorded: fully reversed short-term memory deficits; also recorded: completely reversed the deficit in recognition memory; also recorded: reverses memory deficits when administered 24 h after exposure to the anesthetic isoflurane; also recorded: fully reversed by L-655,708
effect on isoflurane-induced recognition memory deficit (in words) ([5]; L-655,708 0.7 mg/kg 24 h after isoflurane, 30 min before training): failed to reverse the memory deficit in isoflurane-treated mice
prevention of recognition memory deficit (in words) ([5]; L-655,708 0.7 mg/kg before isoflurane): preferred the novel object
discrimination ratio, short-term memory [5, 12]: 0.54±0.05
discrimination ratio, short-term memory ([5]; isoflurane + L-655,708 0.35 mg/kg i.p. 23.5 h after anesthesia, 30 min before training, n=11): 0.68±0.03
exploratory behavior during training (in words) ([5]; mouse, in vivo): did not influence the amount of time that mice spent with both objects

FC(F)OC(Cl)C(F)(F)F (stereo not drawn) [isoflurane]
hypoxia (in words) ([6]; isoflurane 1 MAC in 30% O2 for 1 h or 5 min): Hypoxia did not occur
pCO2 ([6]; isoflurane 5 min): 48.6 ± 2.02 mmHg
pO2 ([6]; isoflurane 5 min): 142 ± 16 mmHg
pH ([6]; isoflurane 5 min): 7.28 ± 0.02
pCO2 ([6]; isoflurane 60 min): 54.2 ± 12.3 mmHg
pO2 ([6]; isoflurane 60 min): 193 ± 31 mmHg
pH ([6]; isoflurane 60 min): 7.23 ± 0.08
mean freezing score, short-term contextual fear conditioning ([2]; independent cohort of 14 mice, 24 h after isoflurane): 32.8%
freezing score to context, short-term memory [2, 8]: 54.6±5.9%
freezing score to context, short-term memory [2, 9]: 51.6±8.0%
freezing score to auditory tone, short-term memory ([2]; trained 1 h after isoflurane): 35.7±6.43%
freezing score to auditory tone, short-term memory ([2]; trained 24 h after isoflurane): 49.1+8.8%
freezing score to auditory tone, long-term memory ([2]; trained 1 h after isoflurane): 21.8±23.1%
freezing score to context, long-term memory ([2]; trained 1 h after isoflurane): 36.4±26.9%
freezing score to auditory tone, long-term memory ([2]; trained 24 h after isoflurane): 41.2±31.2%
freezing score to context, long-term memory ([2]; trained 24 h after isoflurane): 48.9±8.6%
total number of visits to the middle area [3, 10]: 19.9±4.6
total number of visits to the middle area [3, 11]: 18.1±5.3
anxiety in the elevated plus maze (in words) ([3]; mouse, in vivo): neither isoflurane, nor L-655,708 had any effect on anxiety on their own
time to self-right after the immobilizing dose of isoflurane [4]: 153 ± 26 s
immobilizing dose (MAC value) of isoflurane [4]: 1.33±0.02
concentration required to impair the freezing response ([7]; administered during contextual fear learning): 0.6%
concentration required for memory blockade during anesthesia ([7]; rat, in vivo): 0.4%
threshold concentration that impaired memory performance during fear conditioning ([7]; rats): 0.2%
effect of the anesthetic on recognition memory, wild-type mice (in words) [5]: failed to recognize the familiar object and exhibited no preference for the novel object
memory performance of Gabra5−/− mice (in words) [5]: did not cause significant impairment of memory performance in Gabra5−/− mice
effect of the anesthetic on recognition memory, wild-type mice (in words) ([5]; listed as Isoflurane): demonstrated normal working memory
time spent exploring both objects during training ([5]; 72 h after isoflurane): 46.65 ± 6.57 s
discrimination ratio, short-term memory ([5]; 72 h after isoflurane, n=10): 0.60±0.04
discrimination ratio, short-term memory ([5]; Gabra5−/− mice, 24 h after isoflurane): 0.62±0.05
time by which short-term memory deficits resolved ([5]; after isoflurane 1.3% 1 h): ≤ 72 h
discrimination ratio, short-term memory [5, 12]: 0.54±0.04
discrimination ratio, short-term memory ([5]; prevention experiment, wild-type, isoflurane + vehicle injection, n=11): 0.53±0.05
time spent exploring sample objects during training ([5]; short-term memory experiment, 24 h after isoflurane): 62.3 ± 9.44 s
discrimination ratio, working memory ([5]; tested 1 min after training, 24 h after isoflurane 1.3% 1 h, n=10): 0.67±0.04
discrimination ratio, short-term memory ([5]; tested 1 h after training, 24 h after isoflurane, vehicle injection, wild-type, n=31): 0.51±0.03
time spent exploring both sample objects during training ([5]; working memory experiment, 24 h after isoflurane): 49.28 ± 9.60 s
